What was measured:
[1] = system: prostaglandin biosynthesis in vivo (pleural lavage eicosanoids); assay: Rat carrageenan pleural inflammation (CIP) model; conditions: 4 h, 10 mpk oral, read-out: CIP % Inhib. @ 10 mpk
Procedure: For oral administration, test compounds were suspended on the day of use in 100% polyethyleneglycol (PEG 400) with a motorized homogenizer equipped with a Teflon-coated pestle (TRI-R Instrument, Jamaica, N.Y.).
To compare the mean responses of the treatment groups, analysis of variance was applied. Percent inhibition values were determined by comparing the individual treatment mean values to the mean of the control group. Linear regression was used to estimate IC50's/ED50's in appropriate assays.
Pleural inflammation was induced in male adrenalectomized Sprague-Dawley rats following the method of Vinegar et al., Fed. Proc. 1976, 35, 2447-2456. Animals were orally dosed with experimental compounds, 30 minutes prior to the intrapleural injection of 2% lambda carrageenan (Sigma Chemical Co., St. Louis Mo.). Four hours later the animals were euthanized and the pleural cavities lavaged with ice cold saline. The lavage fluid was then added to two volumes of ice cold methanol (final methanol concentration 66%) to lyse cells and precipitate protein. Eicosanoids were determined by EIA as described above.

[2] = system: air pouch prostaglandin biosynthesis (Cox-2); assay: Carrageenan induced air pouch prostaglandin biosynthesis model (CAP); format: in vivo, rat; conditions: for inhibition in vivo at 3 mg/kg: 4 h, 3 mpk, rat, read-out: CAP % Inhib. @ 3 mpk; for ED50: Rattus norvegicus
Procedure, shortened: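 Male Sprague Dawley rats with dorsal air pouches (20 mL air day 0, 10 mL day 3) received 0.2% lambda carrageenan in saline into the pouch on day 7. Compounds dosed at 0.1 to 10 mg/kg 30 min before carrageenan; pouch lavaged 4 h later, prostaglandins measured by EIA. Percent inhibition versus control mean; ED50 by linear regression.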

[3] = biological target: T1, recombinant human Cox-1 (r-hu Cox1) (Homo sapiens, UniProt P23219); assay: Recombinant human PGHS-1 enzyme assay (RHUCX1); format: biochemical; conditions: for inhibition at 100 µM / inhibition at 10 µM: read-out: RHUCX1 % Inh. at Dose; for IC50: read-out: RHUCX1 IC50 (parenthetical value)
T1 construct: made in house; host or cells: baculovirus/Sf9 insect cells (microsomes)
Procedure, shortened: (§1)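 PGE2 production measured by enzyme immunoassay with standards in the same milieu. Inhibition was computed versus control group mean and IC50 estimated by linear regression.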

[4] = biological target: T2, recombinant human Cox-2 (r-hu Cox-2) (Homo sapiens, UniProt P35354); assay: Recombinant human PGHS-2 enzyme assay (RHUCX2); format: biochemical; conditions: for IC50: read-out: RHUCX2 IC50 (parenthetical value)
T2 construct: made in house; host or cells: baculovirus/Sf9 insect cells (microsomes)
T2 sequence (P35354 18-604): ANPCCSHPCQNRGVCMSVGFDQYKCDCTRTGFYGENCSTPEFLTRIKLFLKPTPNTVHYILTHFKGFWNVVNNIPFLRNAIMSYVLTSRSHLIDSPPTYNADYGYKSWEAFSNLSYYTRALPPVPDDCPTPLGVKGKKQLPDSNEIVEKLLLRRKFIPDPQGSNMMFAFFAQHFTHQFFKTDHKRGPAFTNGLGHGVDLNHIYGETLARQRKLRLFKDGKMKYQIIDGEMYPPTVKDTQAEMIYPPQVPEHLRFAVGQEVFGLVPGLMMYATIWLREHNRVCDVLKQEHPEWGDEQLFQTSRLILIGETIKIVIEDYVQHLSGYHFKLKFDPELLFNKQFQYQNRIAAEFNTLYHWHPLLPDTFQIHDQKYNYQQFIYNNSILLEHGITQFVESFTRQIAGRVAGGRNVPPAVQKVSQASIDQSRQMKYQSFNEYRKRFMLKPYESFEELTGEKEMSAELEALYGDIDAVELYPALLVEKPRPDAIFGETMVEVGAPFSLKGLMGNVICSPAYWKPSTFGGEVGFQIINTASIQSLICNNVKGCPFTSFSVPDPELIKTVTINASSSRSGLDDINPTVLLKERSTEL
Procedure, shortened: as §1

[5] = system: carrageenan induced paw edema; assay: Carrageenan induced paw edema (CPE) in rats; format: in vivo; conditions: rat; for inhibition in vivo at 10 mg/kg: 10 mpk oral, 3 hours after carrageenan, read-out: CPE % Inhib. @ 10 mpk; for CPE ED30: oral
Procedure, shortened: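 Male Sprague-Dawley rats (170–190 g) dosed orally in PEG 400, 1 h before subplantar 0.1 ml 1% lambda carrageenan in right hindpaw. Plethysmographic paw volume at 0 and 3 h; edema as difference, % inhibition versus control mean (±SEM), Dunnett's test, ED50 by linear regression.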

[6] = biological target: T3, Human Whole Platelet Cyclooxygenase-1 (Homo sapiens, UniProt P23219); assay: Human Whole Platelet Cyclooxygenase-1 assay (HWPX); format: cell-based; conditions: read-out: HWPX IC50 (parenthetical value)
T3 construct: from tissue; host or cells: human blood: isolated platelets (A4) or heparinised whole blood (A9)
Procedure, shortened: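 Thromboxane production was measured with a commercial kit after stimulation of washed human platelets (ACD-anticoagulated volunteer blood) by 8.8 μM final A23187 for 10 min. Test compounds were added 10 min before stimulus; cold 6 mM EDTA terminated the reaction.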

[7] = biological target: T4, human amnionic whole cell cyclooxygenase-2 (WISH cells) (Homo sapiens, UniProt P35354); assay: IL-1β induced PGE2 production in WISH cells; format: cell-based; conditions: read-out: Wish IC50 (parenthetical value)
T4 construct: endogenous in cells; host or cells: human amnionic WISH cells, induced with IL-1beta
T4 sequence (P35354 18-604): T2 sequence (P35354 18-604)
Procedure, shortened: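 PGE2 was quantified by enzyme immunoassay (optical density read) against standards made up in the matching medium. WISH cells at 80% confluence, washed and placed in serum-free Neuman-Tytell medium, received 5 ng/ml IL-1β plus test compound or DMSO vehicle (0.01% v/v).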

[8] = biological target: T5, Cox-1 in Monocyte U937 cells (Homo sapiens, UniProt P23219); assay: Monocyte U937 cell Cox-1 assay; format: cell-based
T5 construct: endogenous in cells; host or cells: U937 monocyte cells (ATCC)
Procedure: Human amnionic WISH cells were grown to 80% confluence in 48 well plates. Following removal of the growth medium and two washings with Geys Balanced Salt Solutn, 5 ng IL-1β /ml (UBI, Lake Placid, N.Y.) was added to the cells with or without test compound in DMSO (0.01% v/v) in Neuman-Tytell Serumless Medium (GIBCO, Grand Island, N.Y.). Following an 18 hour incubation to allow for the maximal induction of PGHS-2, the conditioned medium was removed and assayed for PGE2 content by EIA analysis as described above.
Monocyte U937 (ATCC, Rockville, Md.) cells were grown in a similar fashion to the WISH cells. After incubation, the conditioned medium was removed and assayed for […] by EIA analysis as described above.

[9] = Pharmacokinetic profile (plasma concentration, half life, AUC); format: in vivo, Rat; conditions: for half-life: Rat IV (3mg/kg); for AUC / concentration at 14 day: rat; for concentration at 14 day: oral, based on 10 mg/kg dosage, read-out: 14 day plasma micromolar concentration
[10] = biological target: T6, Human whole blood Cox-2 (Homo sapiens, UniProt P35354); assay: Human whole blood assay Cyclooxygenase-2; format: cell-based
T6 construct: from tissue; host or cells: heparinised human whole blood stimulated with E. coli LPS
T6 sequence (P35354 18-604): T2 sequence (P35354 18-604)
Procedure: Heparin anticoagulated blood was incubated with drugs dissolved in DMSO. The samples are incubated at 37 degrees Celsius for 15 minutes. E. coli lipopolysaccaride (LPS) 5 μg/ml dded and the samples incubated for 5 hours. The reaction was stopped with the addition of EGTA and cold methanol (50% final concentration). After 18 hours at −70 degree Celsius, the plates were centrifuged and supernatants analyzed for TXB2.

[11] = biological target: T7, Human whole blood Cox-1 (Homo sapiens, UniProt P23219); assay: Human whole blood assay Cyclooxygenase-1; format: cell-based
T7 construct: from tissue; host or cells: human blood: isolated platelets (A4) or heparinised whole blood (A9)
Procedure: Heparin anticoagulated blood was incubated with drugs dissolved in DMSO. The samples are incubated at 37 degrees Celsius for 4.5 hours after which calcium ionophore at a final concentration of 30 μM was added and the mixture allowed to incubate for 30 minutes. The reaction was stopped with the addition of EGTA and cold methanol (50% final concentration). After 18 hours at −70 degrees Celsius, the plates were centrifuged and supernatants analyzed for TXB2.

[12] = read-out: RHUCX2 % Inh. at Dose

T1 sequence (P23219 24-599): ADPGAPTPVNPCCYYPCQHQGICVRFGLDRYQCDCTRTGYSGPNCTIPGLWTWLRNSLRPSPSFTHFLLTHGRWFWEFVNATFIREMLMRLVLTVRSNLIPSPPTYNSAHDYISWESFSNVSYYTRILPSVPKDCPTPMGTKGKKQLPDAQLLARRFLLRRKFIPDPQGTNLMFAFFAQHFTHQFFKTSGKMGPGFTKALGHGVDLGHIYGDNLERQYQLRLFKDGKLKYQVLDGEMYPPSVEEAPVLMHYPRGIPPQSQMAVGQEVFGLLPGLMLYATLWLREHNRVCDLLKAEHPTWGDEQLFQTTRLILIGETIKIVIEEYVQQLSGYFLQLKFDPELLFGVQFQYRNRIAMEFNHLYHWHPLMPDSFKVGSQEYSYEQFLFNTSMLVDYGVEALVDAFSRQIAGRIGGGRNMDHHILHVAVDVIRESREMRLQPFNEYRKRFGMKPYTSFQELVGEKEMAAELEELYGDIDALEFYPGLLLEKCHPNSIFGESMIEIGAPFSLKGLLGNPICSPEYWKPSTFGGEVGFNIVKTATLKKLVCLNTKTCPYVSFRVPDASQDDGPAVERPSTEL
T3 sequence (P23219 24-599): as above
T7 sequence (P23219 24-599): as above
T5 sequence (P23219 24-599): as above

| inhibition at 100 µM [3] | melting point | IC50 [4] | IC50 [6] | IC50 [7] | IC50 [3] | Compound | inhibition in vivo at 10 mg/kg [1] | inhibition in vivo at 3 mg/kg [2] | inhibition in vivo at 10 mg/kg [5] | ED50 [2] | other results |
| --- | --- | --- | --- | --- | --- | --- | --- | --- | --- | --- | --- |
| 27% | 177 to 181 °C | 142 nM | 300 nM | 26 nM |  | NS(=O)(=O)c1ccc(-c2cnn(-c3ccc(F)c(F)c3)c(=O)c2-c2ccc(F)cc2)cc1 [Example 400] | 65% | 82.5% | 41% |  |  |
| 60% | 169 to 172 °C |  |  |  |  | CC(C)=CCn1ncc(-c2ccc(S(C)(=O)=O)cc2)c(-c2ccc(F)cc2)c1=O [Example 24, 2-(3-Methyl-2-butenyl)-4-(4-fluorophenyl)-5-[4-(methylsulfonyl)phenyl]-3(2H)-pyridazinone] |  |  |  |  | inhibition at 10 µM [3]: 0%; IC50 ([8]; read-out: U937 IC50 (parenthetical value)): 190 nM |
|  | 184 to 185 °C | 27 nM | 76 nM | 1 nM | 178 nM | NS(=O)(=O)c1ccc(-c2cnn(CC=C(Cl)Cl)c(=O)c2-c2ccc(F)cc2)cc1 [Example 119, 2-(3,3-Dichloro-2-2-propenyl)-4-(4-fluorophenyl)-5-[4-(aminosulfonyl)phenyl)-3(2H)-pyridazinone] | 82% | 76% | 27% |  |  |
| 2% | 154 to 156 °C |  | 1140 nM | 20 nM |  | NS(=O)(=O)c1ccc(-c2cnn(CC(F)(F)F)c(=O)c2-c2ccc(Cl)cc2)cc1 [Example 69, 2-(2,2,2-Trifluoroethyl)-4-(4-chlorophenyl)-5-[4-(aminosulfonyl)phenyl]-3(2H)-pyridazinone] | 61% | 87% | 45.5% |  | inhibition at 0.01 µM [4, 12]: 30%; inhibition at 0.1 µM [4, 12]: 29%; inhibition at 1 µM ([4]; 1 μM, read-out: RHUCX2 % Inh. at Dose): 88%; CPE ED30 [5]: ED30 = 5.4 |
| 2% | 155 to 157 °C | 94 nM | 12600 nM | 15 nM |  | CS(=O)(=O)c1ccc(-c2cnn(-c3ccc(F)c(Cl)c3)c(=O)c2-c2ccc(F)cc2)cc1 [Example 187, 2-(3-Chloro-4-fluorophenyl)-4-(4-fluorophenyl)-5-[4-(methylsulfonyl)phenyl]-3(2H)-pyridazinone] | 51% | 30% | 28% |  |  |
| 10% | 153 to 154 °C |  |  | 1 nM |  | CS(=O)(=O)c1ccc(-c2cnn(Cc3ccc(F)cc3)c(=O)c2-c2ccc(F)cc2)cc1 [Example 20] |  |  |  |  | inhibition at 0.01 µM [4, 12]: 9%; inhibition at 0.1 µM [4, 12]: 86%; inhibition at 1 µM ([8]; U-937, 1 μM, read-out: U937 % Inhib. at Dose): 33% |
|  | 102 to 110 °C | 134 nM | 9960 nM | 30 nM | 1880 nM | CS(=O)(=O)c1ccc(-c2cnn(-c3ccc(Cl)c(F)c3)c(=O)c2-c2ccc(F)cc2)cc1 [Example 190] | 60% | 71% | 28% |  |  |

| Compound | inhibition at 100 µM [3] | melting point | IC50 [4] | IC50 [6] | IC50 [7] | IC50 [3] | inhibition in vivo at 10 mg/kg [1] | inhibition in vivo at 3 mg/kg [2] | inhibition in vivo at 10 mg/kg [5] | ED50 [2] | other results |
| --- | --- | --- | --- | --- | --- | --- | --- | --- | --- | --- | --- |
| CC(C)CCOc1c(-c2ccc(S(C)(=O)=O)cc2)cnn(-c2ccc(F)cc2)c1=O [Example 375, 2-(4-Fluorophenyl)-4-(3-methylbutoxy)-5-[4-(methylsulfonyl)phenyl]-3(2H)-pyridazinone] | 46% | 117 to 120 °C | 180 nM | 2040 nM | 89 nM |  |  | 77.5% | 47% | 0.57 mg/kg | inhibition at 10 µM [3]: 31%; half-life [9]: 2.9 h; AUC [9]: 1.8 µM·h; concentration at 14 day [9]: 0 µM |
| CC(C)(O)CCOc1c(-c2ccc(S(C)(=O)=O)cc2)cnn(-c2ccc(F)c(F)c2)c1=O [Example 471, 2-(3,4-Difluorophenyl)-4-(3-hydroxy-3-methyl-1-butoxy)-5-[4-(methylsulfonyl)phenyl]-3(2H)-pyridazinone] |  | 131 to 133 °C | 490 nM | 320 nM | 40 nM | 3680 nM |  |  | 41% | 0.9 mg/kg | inhibition at 0.03 µM ([10]; 0.03 micromolar): 85%; inhibition at 30 µM ([11]; 30 micromolar): 55.5% |
| CC(C)(O)CCOc1c(-c2ccc(S(C)(=O)=O)cc2)cnn(-c2ccc(F)cc2)c1=O [Example 451, 2-(4-Fluorophenyl)-4-(3-hydroxy-3-methyl-1-butoxy)-5-[4-(methylsulfonyl)phenyl]-3(2H)-pyridazinone] | 10% | 133 to 134 °C | 470 nM | 22400 nM | 150 nM |  |  | 80.5% |  | 0.7 mg/kg | IC50 [10]: 470 nM; half-life [9]: 5.2 h; AUC [9]: 69 µM·h; concentration at 14 day [9]: 3.43 µM; IC50 [11]: 29100 nM; CPE ED30 [5]: ED30 = 0.82 |
